In patent US7183075B2, “Purified and isolated potassium-chloride cotransporter nucleic acids and polypeptides and therapeutic and screening methods using same” (Vanderbilt University, priority 2000, dated 2007):
Where two headings read alike, the source gives them in different places.

Target: T1, hKCC2 (Homo sapiens, UniProt Q9H2X9, L143X/L381X/L939X)
T1 construct: expressed in transfected cells; host or cells: Xenopus laevis oocytes injected with 25 ng hKCC2 cRNA
T1 sequence (Q9H2X9 with tags, fused parts or gaps isoform Q9H2X9-2 L120X/L358X/L916X limits assumed): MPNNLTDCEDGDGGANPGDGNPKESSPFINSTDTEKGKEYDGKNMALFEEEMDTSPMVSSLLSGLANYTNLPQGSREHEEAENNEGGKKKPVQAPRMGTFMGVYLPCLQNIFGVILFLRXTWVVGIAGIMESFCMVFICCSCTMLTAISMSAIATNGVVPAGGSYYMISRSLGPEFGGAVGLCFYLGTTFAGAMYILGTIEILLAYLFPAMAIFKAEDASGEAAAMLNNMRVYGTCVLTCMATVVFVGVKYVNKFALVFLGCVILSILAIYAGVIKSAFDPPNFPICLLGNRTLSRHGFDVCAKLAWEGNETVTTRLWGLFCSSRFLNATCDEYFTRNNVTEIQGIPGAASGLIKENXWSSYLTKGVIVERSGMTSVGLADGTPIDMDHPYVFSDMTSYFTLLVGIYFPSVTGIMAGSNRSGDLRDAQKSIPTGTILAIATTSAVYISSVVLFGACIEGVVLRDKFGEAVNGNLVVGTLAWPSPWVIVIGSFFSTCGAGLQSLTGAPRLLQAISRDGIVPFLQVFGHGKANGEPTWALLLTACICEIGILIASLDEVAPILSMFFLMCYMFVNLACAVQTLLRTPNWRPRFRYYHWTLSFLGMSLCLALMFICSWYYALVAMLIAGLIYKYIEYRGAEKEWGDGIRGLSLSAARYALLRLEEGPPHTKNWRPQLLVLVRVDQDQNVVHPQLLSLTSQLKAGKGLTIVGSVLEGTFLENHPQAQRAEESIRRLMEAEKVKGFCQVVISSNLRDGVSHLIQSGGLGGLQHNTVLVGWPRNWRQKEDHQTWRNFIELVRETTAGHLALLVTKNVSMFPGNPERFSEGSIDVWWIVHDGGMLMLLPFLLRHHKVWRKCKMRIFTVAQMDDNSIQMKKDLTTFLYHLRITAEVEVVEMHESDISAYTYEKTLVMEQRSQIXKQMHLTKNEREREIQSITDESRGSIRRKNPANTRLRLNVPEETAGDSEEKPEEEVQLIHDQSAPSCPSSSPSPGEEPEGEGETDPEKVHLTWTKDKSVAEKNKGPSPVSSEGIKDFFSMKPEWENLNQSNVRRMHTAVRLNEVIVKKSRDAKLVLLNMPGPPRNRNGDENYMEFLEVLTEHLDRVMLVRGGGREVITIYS
Assay: 86Rb+ uptake (K+-Cl- cotransport) in Xenopus oocytes injected with hKCC2 cRNA
Format: cell-based
Description: Oocytes were surgically collected from anesthetized female Xenopus adults under 0.17% tricaine and incubated for 1 hour with vigorous shaking in frog Ringer ND96 (96 mM sodium chloride, 2 mM potassium chloride, 1.8 mM calcium chloride, 1.0 mM magnesium chloride, and 5 mM Hepes/Tris, pH 7.4) in the presence of 2 mg/ml collagenase B. Oocytes were then washed four times in ND96, manually defolliculated, and incubated overnight in ND96 at 18° C. On the next day, defolliculated stage V–VI oocytes were injected with 50 nl of water or a solution containing cRNA at a concentration of 0.25–0.5 μg/μl (25 ng/oocyte). Oocytes were incubated at 17–18° C. in ND96 (96 mM sodium chloride, 2 mM potassium chloride, 1.8 mM calcium chloride, 1.0 mM magnesium chloride, and 5 mM Hepes/Tris, pH 7.4), supplemented with 2.5 mM sodium pyruvate and 5 mg/100 ml gentamicin, for 3–4 days. The incubation medium was changed every 24 hours. On the day of the experiment, oocytes were switched to Cl^−-free ND96 (96 mM Na^+ Na^+ isethionate, 2 mM K^+ gluconate, 6 mM Ca^2+ gluconate, 1 mM Mg^2+ gluconate, 5 mM Hepes, 2.5 mM sodium pyruvate, 5 mg/100 ml gentamicin, pH 7.4) for 2 hours prior to the uptake assay.
K^+—Cl^− cotransport was assessed by measuring tracer ^86Rb^+ uptake (NEN® Life Science Products of Boston, Mass.) in experimental groups of at least 15 oocytes. […] All uptake solutions also contained 1.8 mM CaCl2, 1 mM MgCl2, 5 mM Hepes, pH 7.4, and were supplemented with 1 mM ouabain and […] ^86Rb^+. Isotonic conditions were generated by supplementing the same solutions with 3.5 g/100 ml sucrose to reach isosmolar conditions for oocytes (˜210 mOsm/kg). Ouabain was added to prevent ^86Rb^+ uptake via the Na^+—K^+-ATPase. The absence of extracellular Na^+ and the hypotonicity of the uptake medium prevented ^86Rb^+ uptake via the endogenous Na^+—K^+-2Cl^− cotransporter that is present in oocytes (Gamba et al. (1994) J Biol Chem 269:17713–17722).
All uptake assays were performed at 32° C. At the end of the uptake period, oocytes were washed five times in ice-cold uptake solution without isotope to remove extracellular fluid tracer. Oocytes were dissolved in 10% SDS, and tracer activity was determined for each oocyte by β-scintillation counting.
Uptake assays to detect K^+—Cl^− cotransport mediated by a hKCC2 were performed using similar methods.
FIG. 10 presents line graphs depicting concentration dependence of K^+—Cl^− cotransport mediated by hKCC2, which was used to calculate ion affinities using analogous methods. Uptake assays were simultaneously assessed in water-injected oocytes. To determine ^86Rb^+ uptake due to KCC2, the mean values for water groups were subtracted from the mean values for corresponding KCC2 groups. Uptake assays in hypotonic media were performed for 60 minutes with a fixed concentration of K^+or Cl^− at 50 mM. The concentration of the counterion was varied from 0 to 50 mM as indicated.

[1] = hKCC2, hypotonic, counterion fixed at 50 mM, 86Rb+ as substitute for K+, read-out: Km (Michaelis-Menten fit)

`[K+]` [Potassium] was tested, and the Km (KCC2, read-out: Potassium Km) was 9.3 mM and the Km [1] was 9.3 mM.
`Cl` [Chloride] gave a Km (KCC2, read-out: Chloride Km) of 6.3 mM and a Km [1] of 6.31 mM.
In the case of `NS(=O)(=O)c1cc(C(=O)O)c(NCc2ccco2)cc1Cl` [furosemide], the IC50 (KCC2) is reported as 90 µM.
HgCl2 [Hg—Cl2] was tested, and the “response of KCC2 to mercury” value (50 μM HgCl2, hypotonic) was “sensitive”.
